The target in the assay is MAPK14 (human) (UniProt Q16539). As to the kind of experiment: Inhibtion of MAPK14 Kinase Activity.

Each structure is given as a SMILES string.

For orientation: IC50 means the concentration at which inhibition is half-maximal. High values mean lower potency, low ones higher potency.

MAPK14 (human), sequence (Q16539 whole entry, looked up): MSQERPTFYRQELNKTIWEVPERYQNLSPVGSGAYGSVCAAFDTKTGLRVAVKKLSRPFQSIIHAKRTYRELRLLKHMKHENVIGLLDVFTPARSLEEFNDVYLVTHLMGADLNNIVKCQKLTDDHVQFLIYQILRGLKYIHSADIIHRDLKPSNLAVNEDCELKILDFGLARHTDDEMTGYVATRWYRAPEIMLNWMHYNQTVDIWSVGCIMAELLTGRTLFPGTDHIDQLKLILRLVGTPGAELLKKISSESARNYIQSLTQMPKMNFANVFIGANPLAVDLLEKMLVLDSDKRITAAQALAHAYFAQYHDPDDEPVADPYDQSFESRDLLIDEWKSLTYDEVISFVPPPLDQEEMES

With `CC(C)(C)OC(=O)[C@H](Cc1ccccc1)NCCCOc1cc(F)c(-n2c(N)c(C(=O)c3ccc(F)cc3F)ccc2=O)c(F)c1`, the IC50 was below 0.1 µM.
Molecule `Nc1c(C(=O)c2ccc(F)cc2F)ccc(=O)n1-c1c(F)cc(OCCCN[C@@H](Cc2ccccc2)C(=O)OC2CCCC2)cc1F` showed an IC50 below 0.1 µM.
The value for `Nc1c(C(=O)c2ccc(F)cc2)ccc(=O)n1-c1c(F)cc(OCCCN[C@H](C(=O)O)c2ccccc2)cc1F` was below 0.1 µM.
In turn, `NCC[C@H](NCCCOc1cc(F)c(-n2c(N)c(C(=O)c3ccc(F)cc3F)ccc2=O)c(F)c1)C(=O)OC1CCCC1` came in with an IC50 below 0.1 µM.
The result for `CC(C)C[C@H](NCCCCCOc1cc(F)c(-n2c(N)c(C(=O)c3ccc(F)cc3F)ccc2=O)c(F)c1)C(=O)OC(C)(C)C` reads below 0.1 µM; that for `Nc1c(C(=O)c2ccc(F)cc2F)ccc(=O)n1-c1c(F)cc(OCCCN[C@H](C(=O)OC2CCCC2)c2ccccc2)cc1F`, below 0.1 µM.
The value for `CC(C)C[C@H](NCCCCCOc1cc(F)c(-n2c(N)c(C(=O)c3ccc(F)cc3F)ccc2=O)c(F)c1)C(=O)O` was below 0.1 µM; that for `CC(C)C[C@@H](NCCCOc1cc(F)c(-n2c(N)c(C(=O)c3ccc(F)cc3F)ccc2=O)c(F)c1)C(=O)OC1CCCC1` was below 0.1 µM.
The result for `Nc1c(C(=O)c2ccc(F)cc2)ccc(=O)n1-c1c(F)cc(CN[C@@H](Cc2ccccc2)C(=O)OC2CCCC2)cc1F` reads below 0.1 µM; that for `Nc1c(C(=O)c2ccc(F)cc2F)ccc(=O)n1-c1c(F)cc(OCCCN[C@H](C(=O)OC2CCCC2)C2CCCCC2)cc1F`, below 0.1 µM.
`CC(C)C[C@H](NCCc1ccc(-n2c(N)c(C(=O)c3ccc(F)cc3F)ccc2=O)cc1)C(=O)O` gave an IC50 below 0.1 µM.
Turning to `Nc1c(C(=O)c2ccc(F)cc2)ccc(=O)n1-c1c(F)cc(OCCCN[C@@H](Cc2ccccc2)C(=O)OC2CCCC2)cc1F`, the IC50 was below 0.1 µM.
The result for `Nc1c(C(=O)c2ccc(F)cc2F)ccc(=O)n1-c1ccc(OCCCN[C@@H](Cc2ccccc2)C(=O)OC2CCCC2)cc1` reads below 0.1 µM.
For `CC(C)C[C@H](NCc1cc(F)c(-n2c(N)c(C(=O)c3ccc(F)cc3F)ccc2=O)c(F)c1)C(=O)OC1CCCC1`, the IC50 was below 0.1 µM.
The molecule `CC(C)(C)OC(=O)[C@@H](NCCCOc1cc(F)c(-n2c(N)c(C(=O)c3ccc(F)cc3F)ccc2=O)c(F)c1)c1ccccc1` registered an IC50 below 0.1 µM.
The value for `CC(C)(C)OC(=O)[C@@H](NCCCOc1cc(F)c(-n2c(N)c(C(=O)c3ccc(F)cc3)ccc2=O)c(F)c1)c1ccccc1` was below 0.1 µM; that for `Nc1c(C(=O)c2ccc(F)cc2)ccc(=O)n1-c1c(F)cc(OCCCN[C@@H](Cc2ccccc2)C(=O)O)cc1F` was below 0.1 µM.
For `Cc1cc(C(=O)c2ccc(=O)n(-c3ccc(OCCCN[C@@H](Cc4ccccc4)C(=O)O)cc3)c2N)ccc1F`, the IC50 was below 0.1 µM.
Molecule `Cc1cc(C(=O)c2ccc(=O)n(-c3c(F)cc(OCCCN[C@@H](CC(C)C)C(=O)OC4CCCC4)cc3F)c2N)ccc1F` gave an IC50 below 0.1 µM.
The result for `CC(C)C[C@H](NCCCOc1ccc(-n2c(N)c(C(=O)c3ccc(F)cc3F)ccc2=O)cc1)C(=O)OC1CCCC1` reads below 0.1 µM; that for `Nc1c(C(=O)c2ccc(F)cc2)ccc(=O)n1-c1ccc(CCN[C@H](C(=O)O)c2ccccc2)cc1`, below 0.1 µM; that for `Cc1cc(C(=O)c2ccc(=O)n(-c3c(F)cc(OCCCN[C@@H](Cc4ccccc4)C(=O)OC4CCCC4)cc3F)c2N)ccc1F`, below 0.1 µM.
As for `Nc1c(C(=O)c2ccc(F)cc2)ccc(=O)n1-c1c(F)cc(CN[C@@H](Cc2ccccc2)C(=O)O)cc1F`, the IC50 is below 0.1 µM.
`Cc1cc(C(=O)c2ccc(=O)n(-c3ccc(CN[C@@H](Cc4ccccc4)C(=O)O)cc3)c2N)ccc1F` yielded an IC50 below 0.1 µM.
The result for `CC(C)C[C@H](NCCCOc1ccc(-n2c(N)c(C(=O)c3ccc(F)cc3)ccc2=O)cc1)C(=O)OC1CCCC1` reads below 0.1 µM.
The value for `Nc1c(C(=O)c2ccc(F)cc2F)ccc(=O)n1-c1c(F)cc(OCCCN[C@H](C(=O)O)c2ccccc2)cc1F` was below 0.1 µM; that for `Cc1cc(C(=O)c2ccc(=O)n(-c3ccc(OCCCN[C@@H](Cc4ccccc4)C(=O)OC4CCCC4)cc3)c2N)ccc1F` was below 0.1 µM; that for `CC(C)C[C@H](NC1CCC(Oc2cc(F)c(-n3c(N)c(C(=O)c4ccc(F)cc4)ccc3=O)c(F)c2)CC1)C(=O)OC1CCCC1` (some centres not stated) was below 0.1 µM.
The result for `Cc1cc(C(=O)c2ccc(=O)n(-c3c(F)cc(OCCCN[C@H](C(=O)O)c4ccccc4)cc3F)c2N)ccc1F` reads below 0.1 µM; that for `Nc1c(C(=O)c2ccc(F)cc2)ccc(=O)n1-c1c(F)cc(OC2CCC(N[C@H](C(=O)OC3CCCC3)c3ccccc3)CC2)cc1F` (some centres not stated), below 0.1 µM.
Consider `Nc1c(C(=O)c2ccc(F)cc2F)ccc(=O)n1-c1ccc(CN[C@H](C(=O)O)c2ccccc2)cc1`, for which the IC50 was below 0.1 µM.
The value for `CC(C)C[C@H](NCCCOc1ccc(-n2c(N)c(C(=O)c3ccc(F)cc3)ccc2=O)cc1)C(=O)O` was below 0.1 µM; that for `Nc1c(C(=O)c2ccc(F)cc2F)ccc(=O)n1-c1ccc(CN[C@@H](Cc2ccccc2)C(=O)OC2CCCC2)cc1` was below 0.1 µM.
`Nc1c(C(=O)c2ccc(F)cc2F)ccc(=O)n1-c1ccc(CN[C@@H](Cc2ccccc2)C(=O)O)cc1` returned an IC50 below 0.1 µM.
The value for `Nc1c(C(=O)c2ccc(F)cc2)ccc(=O)n1-c1c(F)cc(OC2CCC(N[C@@H](Cc3ccccc3)C(=O)O)CC2)cc1F` (some centres not stated) was below 0.1 µM.
The result for `CC(C)C[C@H](NCc1ccc(-n2c(N)c(C(=O)c3ccc(F)cc3F)ccc2=O)cc1)C(=O)OC1CCCC1` reads below 0.1 µM; that for `CC(C)C[C@H](NCCCOc1cc(F)c(-n2c(N)c(C(=O)c3ccc(F)cc3)ccc2=O)c(F)c1)C(=O)O`, below 0.1 µM; that for `CC(C)C[C@@H](NCCCOc1cc(F)c(-n2c(N)c(C(=O)c3ccc(F)cc3F)ccc2=O)c(F)c1)C(=O)OC(C)(C)C`, below 0.1 µM.
`CC(C)C[C@H](NCCCOc1cc(F)c(-n2c(N)c(C(=O)c3ccc(F)cc3)ccc2=O)c(F)c1)C(=O)OC1CCCC1` displayed an IC50 below 0.1 µM.
`CC(C)C[C@@H](NCCCOc1cc(F)c(-n2c(N)c(C(=O)c3ccc(F)cc3F)ccc2=O)c(F)c1)C(=O)O`: the IC50 was below 0.1 µM.
In turn, `CC(C)C[C@H](NC1CCC(Oc2cc(F)c(-n3c(N)c(C(=O)c4ccc(F)cc4)ccc3=O)c(F)c2)CC1)C(=O)O` (some centres not stated) had an IC50 below 0.1 µM.
`Nc1c(C(=O)c2ccc(F)cc2)ccc(=O)n1-c1ccc(OCCCN[C@H](C(=O)OC2CCCC2)c2ccccc2)cc1` returned an IC50 below 0.1 µM.
In turn, `Nc1c(C(=O)c2ccc(F)cc2)ccc(=O)n1-c1c(F)cc(OC2CCC(N[C@H](C(=O)O)c3ccccc3)CC2)cc1F` (some centres not stated) yielded an IC50 below 0.1 µM.
Molecule `Cc1cc(C(=O)c2ccc(=O)n(-c3c(F)cc(OCCCN[C@@H](CC(C)C)C(=O)O)cc3F)c2N)ccc1F` gave an IC50 below 0.1 µM.
In turn, `Nc1c(C(=O)c2ccc(F)cc2)ccc(=O)n1-c1c(F)cc(OCCCN[C@H](C(=O)OC2CCCC2)c2ccccc2)cc1F` returned an IC50 below 0.1 µM.
The result for `Nc1c(C(=O)c2ccc(F)cc2)ccc(=O)n1-c1ccc(OCCCN[C@@H](Cc2ccccc2)C(=O)O)cc1` reads below 0.1 µM.
The molecule `Cc1cc(C(=O)c2ccc(=O)n(-c3c(F)cc(OCCCN[C@H](C(=O)OC4CCCC4)c4ccccc4)cc3F)c2N)ccc1F` had an IC50 below 0.1 µM.
`CC(C)C[C@H](NCc1cc(F)c(-n2c(N)c(C(=O)c3ccc(F)cc3F)ccc2=O)c(F)c1)C(=O)O`: the IC50 is below 0.1 µM.
The result for `Nc1c(C(=O)c2ccc(F)cc2F)ccc(=O)n1-c1c(F)cc(OCCCN[C@@H](C(=O)O)c2ccccc2)cc1F` reads below 0.1 µM; that for `CC(C)C[C@H](NCCCOc1cc(F)c(-n2c(N)c(C(=O)c3ccc(F)cc3F)ccc2=O)c(F)c1)C(=O)O`, below 0.1 µM.
The value for `CC(C)C[C@H](NCCCOc1cc(F)c(-n2c(N)c(C(=O)c3ccc(F)cc3F)ccc2=O)c(F)c1)C(=O)OC(C)(C)C` was below 0.1 µM; that for `CC(C)(C)OC(=O)[C@@H](NCCCOc1cc(F)c(-n2c(N)c(C(=O)c3ccc(F)cc3F)ccc2=O)c(F)c1)C1CCCCC1` was below 0.1 µM; that for `CC(C)C[C@H](NCCCOc1ccc(-n2c(N)c(C(=O)c3ccc(F)cc3F)ccc2=O)cc1)C(=O)O` was below 0.1 µM.
Turning to `Nc1c(C(=O)c2ccc(F)cc2F)ccc(=O)n1-c1ccc(CN[C@H](C(=O)OC2CCCC2)c2ccccc2)cc1`, the IC50 is below 0.1 µM.
The value for `Nc1c(C(=O)c2ccc(F)cc2F)ccc(=O)n1-c1ccc(OCCCN[C@H](C(=O)OC2CCCC2)c2ccccc2)cc1` was below 0.1 µM.
`Cc1cc(C(=O)c2ccc(=O)n(-c3ccc(OCCCN[C@@H](CC(C)C)C(=O)O)cc3)c2N)ccc1F`: the IC50 was below 0.1 µM.
The value for `CC(C)C[C@H](NCCCOc1cc(F)c(-n2c(N)c(C(=O)c3ccc(F)cc3F)ccc2=O)c(F)c1)C(=O)OC1CCCC1` was below 0.1 µM; that for `Nc1c(C(=O)c2ccc(F)cc2)ccc(=O)n1-c1c(F)cc(OC2CCC(N[C@@H](Cc3ccccc3)C(=O)OC3CCCC3)CC2)cc1F` (some centres not stated) was below 0.1 µM.
The value for `CC(C)C[C@H](NCCCOc1cc(F)c(-n2c(N)c(C(=O)c3ccc(F)cc3F)ccc2=O)c(F)c1)C(=O)OCCN1CCOCC1` was below 0.1 µM.
The value for `Cc1cc(C(=O)c2ccc(=O)n(-c3ccc(OCCCN[C@H](C(=O)OC4CCCC4)c4ccccc4)cc3)c2N)ccc1F` was below 0.1 µM.
Molecule `CC(C)C[C@H](NCCCCCOc1cc(F)c(-n2c(N)c(C(=O)c3ccc(F)cc3)ccc2=O)c(F)c1)C(=O)O` displayed an IC50 below 0.1 µM.
The value for `Cc1cc(C(=O)c2ccc(=O)n(-c3c(F)cc(OCCCN[C@@H](Cc4ccccc4)C(=O)O)cc3F)c2N)ccc1F` was below 0.1 µM; that for `Nc1c(C(=O)c2ccc(F)cc2F)ccc(=O)n1-c1c(F)cc(OCCCN[C@H](C(=O)OC2CC3CCC2C3)c2ccccc2)cc1F` (some centres not stated) was below 0.1 µM; that for `Nc1c(C(=O)c2ccc(F)cc2)ccc(=O)n1-c1ccc(OCCCN[C@@H](Cc2ccccc2)C(=O)OC2CCCC2)cc1` was below 0.1 µM.
As to `Nc1c(C(=O)c2ccc(F)cc2F)ccc(=O)n1-c1c(F)cc(OCCCN[C@H](C(=O)OC2Cc3ccccc3C2)c2ccccc2)cc1F`, the IC50 was below 0.1 µM.
Consider `Nc1c(C(=O)c2ccc(F)cc2F)ccc(=O)n1-c1c(F)cc(OCCCN[C@H](C(=O)O)C2CCCCC2)cc1F`, for which the IC50 is below 0.1 µM.
The result for `Nc1c(C(=O)c2ccc(F)cc2F)ccc(=O)n1-c1c(F)cc(OCCCN[C@@H](Cc2ccccc2)C(=O)O)cc1F` reads below 0.1 µM.

Values taken from the Kinase Knowledgebase extract (Sharma et al. 2016).
